According to ChEMBL document CHEMBL5291721, “A preclinical secondary pharmacology resource illuminates target-adverse drug reaction associations of marketed drugs” (Nat Commun, 2023):

Legend:
[1] = target: Vasopressin V1a receptor (Homo sapiens, UniProt P37288)
[2] = target: T1, B2 bradykinin receptor (Homo sapiens, UniProt P30411)
T1 sequence (P30411 whole entry): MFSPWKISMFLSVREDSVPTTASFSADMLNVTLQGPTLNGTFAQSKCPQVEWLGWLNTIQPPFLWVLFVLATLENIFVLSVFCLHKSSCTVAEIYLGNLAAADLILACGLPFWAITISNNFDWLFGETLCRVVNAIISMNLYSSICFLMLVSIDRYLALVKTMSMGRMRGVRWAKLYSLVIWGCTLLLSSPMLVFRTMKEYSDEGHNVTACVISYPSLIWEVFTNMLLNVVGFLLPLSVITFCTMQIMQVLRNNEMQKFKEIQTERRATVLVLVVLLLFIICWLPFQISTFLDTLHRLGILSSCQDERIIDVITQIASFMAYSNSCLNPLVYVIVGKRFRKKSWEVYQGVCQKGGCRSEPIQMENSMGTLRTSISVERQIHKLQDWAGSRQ

[3] = target: T2, Muscarinic acetylcholine receptor M1 (Homo sapiens, UniProt P11229); type: functional
T2 sequence (P11229 whole entry): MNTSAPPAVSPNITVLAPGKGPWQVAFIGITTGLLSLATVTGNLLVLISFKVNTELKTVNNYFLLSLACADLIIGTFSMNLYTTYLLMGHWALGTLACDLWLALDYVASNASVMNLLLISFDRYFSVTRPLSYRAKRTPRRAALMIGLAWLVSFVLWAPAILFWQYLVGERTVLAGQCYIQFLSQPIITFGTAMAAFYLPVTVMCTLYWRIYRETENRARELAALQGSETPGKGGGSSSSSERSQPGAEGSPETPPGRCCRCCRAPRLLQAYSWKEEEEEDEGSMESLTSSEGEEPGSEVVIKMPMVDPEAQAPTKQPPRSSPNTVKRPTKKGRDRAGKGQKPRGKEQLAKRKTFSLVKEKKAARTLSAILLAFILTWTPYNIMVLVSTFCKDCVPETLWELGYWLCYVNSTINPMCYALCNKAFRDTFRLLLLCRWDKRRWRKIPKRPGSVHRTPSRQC

[4] = target: T3, 5-hydroxytryptamine receptor 1A (Homo sapiens, UniProt P08908); type: functional, cell-based
T3 sequence (P08908 whole entry): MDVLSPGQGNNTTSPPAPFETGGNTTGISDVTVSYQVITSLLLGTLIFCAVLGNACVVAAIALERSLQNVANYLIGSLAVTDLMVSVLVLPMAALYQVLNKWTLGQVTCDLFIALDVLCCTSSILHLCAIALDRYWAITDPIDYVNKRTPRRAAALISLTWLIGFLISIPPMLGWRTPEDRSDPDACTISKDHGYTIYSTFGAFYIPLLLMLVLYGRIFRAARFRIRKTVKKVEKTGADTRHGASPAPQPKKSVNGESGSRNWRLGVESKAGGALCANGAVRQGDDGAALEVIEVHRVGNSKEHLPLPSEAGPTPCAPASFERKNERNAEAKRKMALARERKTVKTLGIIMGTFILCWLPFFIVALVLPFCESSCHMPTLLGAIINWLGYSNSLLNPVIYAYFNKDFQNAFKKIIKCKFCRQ

[5] = target: 5-hydroxytryptamine receptor 2A (Homo sapiens, UniProt P28223); type: functional, cell-based
[6] = target: Melanocortin receptor 3 (Homo sapiens, UniProt P41968)
[7] = target: T4, Progesterone receptor (Homo sapiens, UniProt P06401); type: functional
T4 sequence (P06401 whole entry): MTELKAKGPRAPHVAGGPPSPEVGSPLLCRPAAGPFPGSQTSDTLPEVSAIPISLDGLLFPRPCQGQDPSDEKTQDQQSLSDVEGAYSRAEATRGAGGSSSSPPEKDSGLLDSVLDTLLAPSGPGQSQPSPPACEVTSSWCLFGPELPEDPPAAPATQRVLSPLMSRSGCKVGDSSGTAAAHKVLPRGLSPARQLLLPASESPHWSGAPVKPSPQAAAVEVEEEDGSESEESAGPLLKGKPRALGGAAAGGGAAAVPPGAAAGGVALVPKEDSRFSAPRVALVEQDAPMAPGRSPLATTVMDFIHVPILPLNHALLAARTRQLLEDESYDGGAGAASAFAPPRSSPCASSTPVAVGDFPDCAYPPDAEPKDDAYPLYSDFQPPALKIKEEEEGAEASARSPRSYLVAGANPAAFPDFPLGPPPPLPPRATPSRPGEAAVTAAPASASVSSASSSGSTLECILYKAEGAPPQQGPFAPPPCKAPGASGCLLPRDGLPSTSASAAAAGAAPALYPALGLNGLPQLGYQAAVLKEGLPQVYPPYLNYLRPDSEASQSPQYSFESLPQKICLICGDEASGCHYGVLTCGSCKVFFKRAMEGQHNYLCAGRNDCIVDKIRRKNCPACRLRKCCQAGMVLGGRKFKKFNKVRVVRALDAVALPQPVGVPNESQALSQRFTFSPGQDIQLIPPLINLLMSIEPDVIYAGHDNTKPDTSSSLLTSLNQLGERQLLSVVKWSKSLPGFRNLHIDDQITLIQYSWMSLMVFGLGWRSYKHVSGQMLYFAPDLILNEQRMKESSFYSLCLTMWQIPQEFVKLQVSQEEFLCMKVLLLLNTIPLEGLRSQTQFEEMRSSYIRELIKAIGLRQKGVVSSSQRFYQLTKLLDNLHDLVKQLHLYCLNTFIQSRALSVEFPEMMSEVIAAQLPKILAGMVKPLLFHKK

[8] = target: Sodium-dependent serotonin transporter (Homo sapiens, UniProt P31645)
[9] = target: Histamine H3 receptor (Homo sapiens, UniProt Q9Y5N1)
Also: assay procedure not described here.

Sequence of 5-hydroxytryptamine receptor 2A (P28223 whole entry): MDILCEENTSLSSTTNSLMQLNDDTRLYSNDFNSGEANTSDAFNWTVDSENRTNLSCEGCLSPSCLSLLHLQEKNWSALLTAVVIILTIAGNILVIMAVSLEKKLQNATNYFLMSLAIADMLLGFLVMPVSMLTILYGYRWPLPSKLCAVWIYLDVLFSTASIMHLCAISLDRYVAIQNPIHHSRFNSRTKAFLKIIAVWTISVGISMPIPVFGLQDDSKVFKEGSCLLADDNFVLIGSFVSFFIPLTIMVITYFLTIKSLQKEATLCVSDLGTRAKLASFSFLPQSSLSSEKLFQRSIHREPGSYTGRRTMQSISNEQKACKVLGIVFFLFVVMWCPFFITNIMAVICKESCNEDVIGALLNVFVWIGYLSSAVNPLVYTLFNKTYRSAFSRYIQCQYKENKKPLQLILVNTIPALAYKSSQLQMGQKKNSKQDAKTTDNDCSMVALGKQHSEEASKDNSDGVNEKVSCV
Sequence of Vasopressin V1a receptor (P37288 whole entry): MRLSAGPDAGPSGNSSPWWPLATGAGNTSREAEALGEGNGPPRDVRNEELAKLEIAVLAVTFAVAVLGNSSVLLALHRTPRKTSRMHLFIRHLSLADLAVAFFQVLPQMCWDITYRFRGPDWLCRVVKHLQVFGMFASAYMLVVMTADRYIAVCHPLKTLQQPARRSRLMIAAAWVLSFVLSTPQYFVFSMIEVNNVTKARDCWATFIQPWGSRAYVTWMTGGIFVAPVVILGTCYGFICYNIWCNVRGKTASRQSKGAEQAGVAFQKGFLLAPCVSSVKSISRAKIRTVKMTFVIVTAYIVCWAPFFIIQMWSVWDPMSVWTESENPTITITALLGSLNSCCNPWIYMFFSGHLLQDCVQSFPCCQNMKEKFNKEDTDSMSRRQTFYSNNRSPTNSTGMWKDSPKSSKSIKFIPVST
Sequence of Histamine H3 receptor (Q9Y5N1 whole entry): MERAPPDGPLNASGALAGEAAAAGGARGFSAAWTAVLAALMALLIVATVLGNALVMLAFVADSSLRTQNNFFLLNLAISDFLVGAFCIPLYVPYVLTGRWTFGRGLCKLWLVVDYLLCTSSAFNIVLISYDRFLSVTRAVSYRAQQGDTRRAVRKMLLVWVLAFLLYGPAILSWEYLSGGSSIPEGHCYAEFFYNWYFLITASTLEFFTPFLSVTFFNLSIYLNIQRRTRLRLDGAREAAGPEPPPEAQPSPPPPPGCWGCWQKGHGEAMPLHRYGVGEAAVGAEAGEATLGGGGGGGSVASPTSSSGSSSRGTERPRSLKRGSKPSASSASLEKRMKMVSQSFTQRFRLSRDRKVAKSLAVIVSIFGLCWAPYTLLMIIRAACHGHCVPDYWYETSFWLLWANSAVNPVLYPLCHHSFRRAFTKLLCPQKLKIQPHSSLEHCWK
Sequence of Sodium-dependent serotonin transporter (P31645 whole entry): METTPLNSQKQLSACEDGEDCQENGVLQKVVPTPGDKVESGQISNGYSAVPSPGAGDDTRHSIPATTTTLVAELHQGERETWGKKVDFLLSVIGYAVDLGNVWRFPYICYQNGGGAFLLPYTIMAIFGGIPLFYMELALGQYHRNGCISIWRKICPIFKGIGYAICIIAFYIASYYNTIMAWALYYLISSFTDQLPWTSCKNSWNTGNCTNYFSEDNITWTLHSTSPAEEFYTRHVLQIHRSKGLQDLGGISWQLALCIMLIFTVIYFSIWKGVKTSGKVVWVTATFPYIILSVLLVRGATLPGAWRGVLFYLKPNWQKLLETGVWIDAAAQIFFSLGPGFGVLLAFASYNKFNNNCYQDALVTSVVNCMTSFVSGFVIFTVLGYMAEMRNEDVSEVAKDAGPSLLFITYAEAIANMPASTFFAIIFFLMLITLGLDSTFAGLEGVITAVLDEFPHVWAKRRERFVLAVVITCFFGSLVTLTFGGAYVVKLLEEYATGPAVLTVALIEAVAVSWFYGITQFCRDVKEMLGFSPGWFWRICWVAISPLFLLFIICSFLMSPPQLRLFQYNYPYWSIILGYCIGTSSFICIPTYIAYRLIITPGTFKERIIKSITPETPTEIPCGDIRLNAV
Sequence of Melanocortin receptor 3 (P41968 whole entry): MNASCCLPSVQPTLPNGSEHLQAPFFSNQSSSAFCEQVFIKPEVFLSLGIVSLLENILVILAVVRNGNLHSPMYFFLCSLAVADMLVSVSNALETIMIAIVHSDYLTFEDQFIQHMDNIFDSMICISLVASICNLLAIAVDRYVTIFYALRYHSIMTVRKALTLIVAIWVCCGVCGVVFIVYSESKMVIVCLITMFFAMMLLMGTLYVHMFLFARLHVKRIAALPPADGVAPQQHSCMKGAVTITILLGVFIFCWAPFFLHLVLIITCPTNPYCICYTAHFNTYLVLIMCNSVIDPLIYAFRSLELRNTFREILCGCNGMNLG

## CCCCC(C)(O)C/C=C/[C@H]1[C@H](O)CC(=O)[C@@H]1CCCCCCC(=O)OC (stereo partly drawn) [MISOPROSTOL]
[1]
  AC50: > 30 µM
[2]
  AC50: > 30 µM
[3]
  AC50: > 30 µM
[4]
  AC50: > 30 µM
[5]
  AC50: > 30 µM
[6]
  AC50: > 30 µM
[7]
  AC50: > 30 µM
[8]
  AC50: > 30 µM
[9]
  AC50: > 30 µM

## CCCCCOC(=O)Nc1nc(=O)n([C@@H]2O[C@H](C)[C@@H](O)[C@H]2O)cc1F [CAPECITABINE]
[1]
  AC50: > 30 µM
[2]
  AC50: > 30 µM
[3]
  AC50: > 30 µM
[4]
  AC50: > 30 µM
[5]
  AC50: > 30 µM
[6]
  AC50: > 30 µM
[7]
  AC50: > 30 µM
[8]
  AC50: > 30 µM
[9]
  AC50: > 30 µM

## C1=Cc2cccc(OCC3CNCCO3)c2C1 (stereo not drawn) [INDELOXAZINE]
[1]
  AC50: > 30 µM
[2]
  AC50: > 30 µM
[3]
  AC50: > 30 µM
[4]
  AC50: > 30 µM
[5]
  AC50: > 30 µM
[6]
  AC50: > 30 µM
[7]
  AC50: > 30 µM
[8]
  AC50: 0.047 µM
[9]
  AC50: > 30 µM

## CCCCCN(C)CCC(O)(P(=O)(O)O)P(=O)(O)O [IBANDRONIC ACID]
[1]
  AC50: > 30 µM
[2]
  AC50: > 30 µM
[3]
  AC50: > 30 µM
[4]
  AC50: > 10 µM
[5]
  AC50: > 30 µM
[6]
  AC50: > 30 µM
[7]
  AC50: > 30 µM
[8]
  AC50: > 30 µM
[9]
  AC50: > 30 µM

## CC(=O)NS(=O)(=O)c1ccc(N)cc1 [SULFACETAMIDE]
[1]
  AC50: > 10 µM
[2]
  AC50: > 10 µM
[3]
  AC50: > 10 µM
[4]
  AC50: > 10 µM
[5]
  AC50: > 10 µM
[6]
  AC50: > 10 µM
[7]
  AC50: > 10 µM
[8]
  AC50: > 10 µM
[9]
  AC50: > 10 µM

## CCCCCCC(C)(C)c1cc(O)c2c(c1)OC(C)(C)C1CCC(=O)CC21 (stereo not drawn) [NABILONE]
[1]
  AC50: > 30 µM
[2]
  AC50: > 10 µM
[3]
  AC50: > 30 µM
[4]
  AC50: > 30 µM
[5]
  AC50: > 30 µM
[6]
  AC50: > 30 µM
[7]
  AC50: > 30 µM
[8]
  AC50: > 30 µM
[9]
  AC50: > 30 µM

## C#C[C@]1(O)CC[C@H]2[C@@H]3CCC4=CCCC[C@@H]4[C@H]3CC[C@@]21C [LYNESTRENOL]
[1]
  AC50: > 30 µM
[2]
  AC50: > 30 µM
[3]
  AC50: > 30 µM
[4]
  AC50: > 30 µM
[5]
  AC50: > 30 µM
[6]
  AC50: > 30 µM
[7]
  AC50: 5.2 µM
[8]
  AC50: > 30 µM
[9]
  AC50: > 30 µM
